This assay relates to Swiss mice, Sarcoma 180 sc, mean tumor weight T/C. In words: NCI In Vivo Anticancer Drug Screen. Data for tumor model Sarcoma 180 (subcutaneous) in Swiss mice. The settings on record: endpoint: mean tumor weight, higher = larger tumour. A digest of the protocol: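 Readout is the ratio of treated-group measurement to vehicle-control measurement (T/C), based on survival or tumor size in mice carrying transplanted tumors.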

Where [1] appears, read: dose: 25.0 mg/kg/injection, schedule: Q01DX007 (ip), vehicle: carboxymethylcellulose (CMC).
Setting [2] is: dose: 50.0 mg/kg/injection, schedule: Q01DX007 (ip), vehicle: carboxymethylcellulose (CMC).
Setting [3] is: dose: 125.0 mg/kg/injection, schedule: Q01DX007 (ip), vehicle: carboxymethylcellulose (CMC).

Where “and” joins values, the source holds several entries; their conditions need not be identical. Equal entries are not always repeated.

As to `COc1ccc2[nH]c3c(C)c4ccncc4c(C)c3c2c1`, the T/C (dose: 6.2 mg/kg/injection, schedule: Q01DX007 (ip), vehicle: carboxymethylcellulose (CMC)) was 81 % of control; the T/C (dose: 12.5 mg/kg/injection, schedule: Q01DX007 (ip), vehicle: carboxymethylcellulose (CMC)) is 77 % of control; the T/C under setting [1] is 33 % of control; the T/C (dose: 27.0 mg/kg/injection, schedule: Q01DX007 (ip), vehicle: saline) was 72 % of control; the T/C (dose: 40.0 mg/kg/injection, schedule: Q01DX007 (ip), vehicle: saline) is 88 % of control; the T/C under setting [2] is 27 % of control. In addition, the T/C was 97 % of control (dose: 50.0 mg/kg/injection, schedule: Q01DX007 (ip), vehicle: steriod suspending solution); 50 % of control (dose: 60.0 mg/kg/injection, schedule: Q01DX007 (ip), vehicle: saline); 25 % of control (dose: 75.0 mg/kg/injection, schedule: Q01DX007 (ip), vehicle: carboxymethylcellulose (CMC)); 46 % of control (dose: 75.0 mg/kg/injection, schedule: Q01DX007 (ip), vehicle: steriod suspending solution); 24 % of control (dose: 90.0 mg/kg/injection, schedule: Q01DX007 (ip), vehicle: saline); 19 % of control (dose: 150.0 mg/kg/injection, schedule: Q01DX007 (ip), vehicle: carboxymethylcellulose (CMC)). Besides, the T/C (dose: 150.0 mg/kg/injection, schedule: Q01DX007 (ip), vehicle: steriod suspending solution) is 31 % of control.

Take `COc1cc(C(=O)CC2CCCCN2)ccc1O` (stereo not given): the T/C is, setting by setting: (dose: 55.0 mg/kg/injection, schedule: Q01DX007 (ip), vehicle: saline) 62 % of control; (dose: 83.0 mg/kg/injection, schedule: Q01DX007 (ip), vehicle: saline) 120 % of control; (dose: 125.0 mg/kg/injection, schedule: Q01DX007 (ip), vehicle: saline) 95 % of control and 96 % of control; (dose: 250.0 mg/kg/injection, schedule: Q01DX007 (ip), vehicle: saline) 83 % of control.

As to `C[C@@H](N)[C@@H](O)c1ccccc1`, the T/C is, setting by setting: (dose: 3.13 mg/kg/injection, schedule: Q01DX007 (ip), vehicle: saline) 89 % of control; (dose: 6.25 mg/kg/injection, schedule: Q01DX007 (ip), vehicle: saline) 91 % of control; (dose: 12.5 mg/kg/injection, schedule: Q01DX007 (ip), vehicle: saline) 51 % of control; (dose: 25.0 mg/kg/injection, schedule: Q01DX007 (ip), vehicle: saline) 52 % of control.

With `CCCCN(C)/N=N/c1nc[nH]c1C(N)=O`, the T/C runs as follows: (dose: 31.0 mg/kg/injection, schedule: Q01DX007 (ip), vehicle: carboxymethylcellulose (CMC)) 44 % of control; (dose: 62.0 mg/kg/injection, schedule: Q01DX007 (ip), vehicle: carboxymethylcellulose (CMC)) 31 % of control; under setting [3], 14 % of control.

For `C=CCNc1ccc(C)cc1`, the T/C reads like this: (dose: 30.0 mg/kg/injection, schedule: Q01DX007 (ip), vehicle: carboxymethylcellulose (CMC)) 72 % of control and 88 % of control; (dose: 55.0 mg/kg/injection, schedule: Q01DX007 (ip), vehicle: carboxymethylcellulose (CMC)) 86 % of control; (dose: 69.0 mg/kg/injection, schedule: Q01DX007 (ip), vehicle: carboxymethylcellulose (CMC)) 109 % of control; (dose: 83.0 mg/kg/injection, schedule: Q01DX007 (ip), vehicle: carboxymethylcellulose (CMC)) 76 % of control; (dose: 105.0 mg/kg/injection, schedule: Q01DX007 (ip), vehicle: carboxymethylcellulose (CMC)) 76 % of control and 83 % of control; under setting [3], 26 % of control. The T/C (dose: 157.0 mg/kg/injection, schedule: Q01DX007 (ip), vehicle: carboxymethylcellulose (CMC)) is 94 % of control.

In the case of `CC(=O)[C@@]1(O)CC[C@H]2[C@@H]3C[C@H](C)C4=CC(=O)C=C[C@]4(C)[C@@]3(F)[C@@H](O)C[C@@]21C`, the T/C runs as follows: (dose: 6.9 mg/kg/injection, schedule: Q01DX007 (sc), vehicle: steriod suspending solution) 102 % of control; (dose: 16.0 mg/kg/injection, schedule: Q01DX007 (sc), vehicle: steriod suspending solution) 76 % of control; (dose: 17.0 mg/kg/injection, schedule: Q01DX007 (sc), vehicle: steriod suspending solution) 60 % of control; (dose: 24.0 mg/kg/injection, schedule: Q01DX007 (sc), vehicle: steriod suspending solution) 78 % of control; (dose: 26.0 mg/kg/injection, schedule: Q01DX007 (sc), vehicle: steriod suspending solution) 19 % of control and 23 % of control; (dose: 27.5 mg/kg/injection, schedule: Q01DX007 (sc), vehicle: steriod suspending solution) 65 % of control. Further, the T/C reads like this: (dose: 27.5 mg/kg/injection, schedule: Q#A X014 (sc), vehicle: steriod suspending solution) 33 % of control; (dose: 36.5 mg/kg/injection, schedule: Q01DX007 (sc), vehicle: steriod suspending solution) 57 % of control; (dose: 40.0 mg/kg/injection, schedule: Q01DX007 (sc), vehicle: steriod suspending solution) 17 % of control and 23 % of control and 36 % of control; (dose: 41.5 mg/kg/injection, schedule: Q#A X014 (sc), vehicle: steriod suspending solution) 40 % of control; (dose: 60.0 mg/kg/injection, schedule: Q01DX007 (sc), vehicle: steriod suspending solution) 29 % of control; (dose: 62.5 mg/kg/injection, schedule: Q#A X014 (sc), vehicle: steriod suspending solution) 34 % of control and 45 % of control. The T/C was 38 % of control (dose: 83.0 mg/kg/injection, schedule: Q01DX007 (sc), vehicle: steriod suspending solution); 34 % of control (dose: 85.0 mg/kg/injection, schedule: Q01DX007 (sc), vehicle: steriod suspending solution); 18 % of control (dose: 90.0 mg/kg/injection, schedule: Q01DX007 (sc), vehicle: steriod suspending solution); 17 % of control (dose: 125.0 mg/kg/injection, schedule: Q01DX007 (sc), vehicle: steriod suspending solution); 19 % of control (dose: 135.0 mg/kg/injection, schedule: Q01DX007 (sc), vehicle: steriod suspending solution); 46 % of control (dose: 188.0 mg/kg/injection, schedule: Q01DX007 (sc), vehicle: steriod suspending solution). Further, the T/C was 25 % of control and 26 % of control (dose: 282.0 mg/kg/injection, schedule: Q01DX007 (sc), vehicle: steriod suspending solution); 34 % of control (dose: 300.0 mg/kg/injection, schedule: Q01DX007 (sc), vehicle: steriod suspending solution); 20 % of control and 39 % of control (dose: 423.0 mg/kg/injection, schedule: Q01DX007 (sc), vehicle: steriod suspending solution); 3 % of control (dose: 500.0 mg/kg/injection, schedule: Q01DX007 (sc), vehicle: steriod suspending solution); 30 % of control (dose: 600.0 mg/kg/injection, schedule: Q01DX007 (sc), vehicle: steriod suspending solution); 15 % of control (dose: 630.0 mg/kg/injection, schedule: Q01DX007 (sc), vehicle: steriod suspending solution). Further, the T/C by setting is: (dose: 900.0 mg/kg/injection, schedule: Q01DX007 (sc), vehicle: steriod suspending solution) 27 % of control; (dose: 945.0 mg/kg/injection, schedule: Q01DX007 (sc), vehicle: steriod suspending solution) 22 % of control; (dose: 1400.0 mg/kg/injection, schedule: Q01DX007 (sc), vehicle: steriod suspending solution) 14 % of control.

In the case of `COS(C)(=O)=O`, the T/C is, setting by setting: under setting [1], 89 % of control; under setting [2], 66 % of control.

On to `O=C(Nc1ccc(C2=NCCN2)cc1)c1ccc(C(=O)Nc2ccc(C3=NCCN3)cc2)c(Cl)c1`, for which the T/C by setting is: (dose: 18.0 mg/kg/injection, schedule: Q01DX007 (ip), vehicle: carboxymethylcellulose (CMC)) 88 % of control; (dose: 20.0 mg/kg/injection, schedule: Q01DX007 (ip), vehicle: water) 110 % of control; (dose: 37.0 mg/kg/injection, schedule: Q01DX007 (ip), vehicle: carboxymethylcellulose (CMC)) 96 % of control; (dose: 40.0 mg/kg/injection, schedule: Q01DX007 (ip), vehicle: water) 117 % of control.

With `CCC(CC)C(O)CCCN(C)C` (stereo not given), the T/C was 103 % of control (dose: 100.0 mg/kg/injection, schedule: Q01DX007 (ip), vehicle: saline); 95 % of control (dose: 200.0 mg/kg/injection, schedule: Q01DX007 (ip), vehicle: saline); 75 % of control (dose: 400.0 mg/kg/injection, schedule: Q01DX007 (ip), vehicle: saline).

For `CN(Cc1cnc2nc(NCNC(=O)C3=C(O)[C@@]4(O)C(=O)C5=C(O)c6c(O)cccc6[C@@](C)(O)[C@H]5C[C@H]4[C@H](N(C)C)C3=O)nc(N)c2n1)c1ccc(C(=O)NC(CCC(=O)O)C(=O)O)cc1` (stereo not given in full), the T/C is 76 % of control (dose: 1.5 mg/kg/injection, schedule: Q01DX007 (ip), vehicle: saline); 52 % of control (dose: 3.0 mg/kg/injection, schedule: Q01DX007 (ip), vehicle: saline); 16 % of control (dose: 6.0 mg/kg/injection, schedule: Q01DX007 (ip), vehicle: saline).

As usually defined, the T/C is the ratio of treated to control.

Values taken from PubChem BioAssay AID342 (DTP/NCI, 2004).
